Tests used:
[1] = target: T1, argininosuccinate synthase (AsS) (Mus musculus, UniProt P16460); assay: Potentiation of argininosuccinate synthase activity (phosphate generated from ATP); assay type: biochemical
T1 construct: Cytosolic and membrane fractions of the renal extract (100 mg/ml total protein) were applied to separate columns; from tissue; host or cells: Balb-c mouse kidney, cytosolic and membrane fractions
T1 sequence (P16460 1-412): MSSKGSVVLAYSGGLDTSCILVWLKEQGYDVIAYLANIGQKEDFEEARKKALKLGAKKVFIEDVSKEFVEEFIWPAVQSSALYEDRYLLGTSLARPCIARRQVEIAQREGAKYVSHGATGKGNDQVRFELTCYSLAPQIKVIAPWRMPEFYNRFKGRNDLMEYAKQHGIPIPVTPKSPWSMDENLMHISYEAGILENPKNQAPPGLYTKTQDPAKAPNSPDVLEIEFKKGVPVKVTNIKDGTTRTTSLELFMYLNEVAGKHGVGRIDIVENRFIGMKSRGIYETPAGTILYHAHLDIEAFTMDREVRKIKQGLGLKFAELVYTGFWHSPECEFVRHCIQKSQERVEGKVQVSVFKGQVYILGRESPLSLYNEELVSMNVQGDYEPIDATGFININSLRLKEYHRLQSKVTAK
Protocol: Activation of the AsS enzyme of Example 3 by peptide SEQ ID NO 8 was quantified in vitro according to Hao et al. [Hao G., Xie L., Gross S. S. Argininosuccinate synthetase is reversibly inactivated by S-nitrosylation in vitro and in vivo. J. Biol. Chem., 279:36192-36200 (2004)]. This method is based on measuring the quantity of phosphate generated from ATP, when pyrophosphatase is added to the reaction medium. Since the activity of the pyrophosphatase relates directly to the enzymatic activity of the AsS, the quantity of generated pyrophosphate is a direct measurement of the AsS activity.
The AsS enzyme (1 μg) was added to the reaction mixture containing 20 mM Tris-HCl, pH 7.8, 2 mM ATP, 2 mM citrulline, 2 mM aspartate, 6 mM MgCl2, 20 mM KCl, and 0.2 units of pyrophosphatase in a final volume of 200 μL in 96 well microplates. Increasing quantities of the SEQ ID NO 8 peptide (0.5, 1 to 8 μM) were added, and samples were incubated at 37° C. for 60 minutes. The reaction was interrupted by the addition of 200 μL of ammonium molybdate buffer (10 mM ascorbic acid, 2.5 mM ammonium molybdate, 2% sulphuric acid). Resulting phosphate was determined in the samples by spectrophotometry (absorbance at 650 nm), using a standard curve obtained with inorganic phosphate.
The production rate of phosphate (enzymatic activity of the AsS) was activated up to approximately 2.5 fold upon addition of 2 μM peptide SEQ ID NO 8. […] Accessibility of endothelial and inducible nitric oxide synthase to the intracellular citrulline-arginine regeneration pathway. Biochem. Pharmacol. 69: 97-104, 2005].

[2] = test system: HUVEC cells (human umbilical vessel endothelial cells); assay: NO (nitrite) production in HUVEC cells; assay type: cell-based; settings: 24 hours incubation
Protocol: HUVEC cells (human umbilical vessel endothelial cells) were obtained from umbilical vessels, a gift from the University Hospital of the University of São Paulo. Vessels were washed externally with ethanol 96%, and after a diagonal cut at the end of the vessel, a catheter was introduced into the vessel vein, and attached to a three way valve. The vein was washed with 20 ml sterile saline, and the other end of the vessel was tied. One milliliter of a collagenase type IV solution was introduced (0.2 mg/ml/cm of umbilical vessel). The vessel was transferred to a Petri dish (10 cm^2), and incubated for 15 minutes at 37° C. Cells contained inside the cord were removed by massage, and transferred to a sterile tube. Bovine fetal serum was added to a final concentration of 10%, and the suspension was centrifuged for 10 minutes at 3.000 g at 4° C., and the cell pellet was resuspended in 2 ml complete medium (40% Medium 199, 40% DMEM, 18% bovine fetal serum, 1% L-glutamine, 1% penicillin/streptomycin). The cell suspension was transferred to a bottle, previously treated with a 1% gelatin solution (30 min at 4° C.), and 5 mL complete medium was added. The bottle was incubated at 37° C. at 5% CO2 atmosphere. […]
Cells were grown in Petri dishes to 80% confluence. […] The concentration of nitrite, derived from NO, was measured in the extracellular and the intracellular media.

<ENWPHPQIPP [SEQ ID NO 8]
activation of the production rate of phosphate (enzymatic activity of the AsS) ([1]; 2 μM peptide, AsS 1-8 μg): approximately 2.5 fold
activation of AsS ([1]; maximum activation): 70-80%
increase of NO generation [2]: approximately 100%
